Data: PubChem BioAssay AID248 (DTP/NCI, 2004)
Several values for one entry are separate records, joined by “and”; a condition that tells them apart may be missing. Equal values may be shown once. Toxic doses and inconclusive results are not listed.

Test system: L1210 leukemia ip in BDF1 mice, survival T/C
Experiment: NCI In Vivo Anticancer Drug Screen. Data for tumor model L1210 Leukemia (intraperitoneal) in B6D2F1 (BDF1) mice
Settings: higher = longer survival
Procedure, shortened: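 Antitumor effect is assessed in tumor-bearing animals. Survival in the compound arm is compared with a vehicle-dosed control arm and expressed as their quotient.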

[1] = endpoint: mean survival time, dose: 100.0 mg/kg/injection, schedule: Q01DX009 (ip), vehicle: saline with Tween-80
[2] = endpoint: mean survival time, dose: 200.0 mg/kg/injection, schedule: Q01DX009 (ip), vehicle: saline with Tween-80

## c1ccc(CSn2cnc3nc4ccccc4c-3c2)cc1
endpoint: mean survival time, dose: 100.0 mg/kg/injection, schedule: Q04DX003 (ip), vehicle: gum acacia
  T/C: 91 % of control
endpoint: mean survival time, dose: 200.0 mg/kg/injection, schedule: Q04DX003 (ip), vehicle: gum acacia
  T/C: 91 % of control
endpoint: mean survival time, dose: 400.0 mg/kg/injection, schedule: Q04DX003 (ip), vehicle: gum acacia
  T/C: 91 % of control

## COc1c2c(cc3c1OCO3)[C@@]13CCN(C2)[C@@H]1CC=C[C@H]3O
endpoint: mean survival time, dose: 5.0 mg/kg/injection, schedule: Q01DX001 (ip), vehicle: carboxymethylcellulose (CMC)
  T/C: 105 % of control
endpoint: mean survival time, dose: 10.0 mg/kg/injection, schedule: Q01DX001 (ip), vehicle: carboxymethylcellulose (CMC)
  T/C: 105 % of control

## OC/C=C/Cl
endpoint: mean survival time, dose: 25.0 mg/kg/injection, schedule: Q01DX001 (ip), vehicle: acetone
  T/C: 106 % of control
endpoint: mean survival time, dose: 50.0 mg/kg/injection, schedule: Q01DX001 (ip), vehicle: acetone
  T/C: 97 % of control
endpoint: mean survival time, dose: 100.0 mg/kg/injection, schedule: Q01DX001 (ip), vehicle: acetone
  T/C: 98 % of control

## Cc1cccc(CC23CC4CC(CC(C4)C2)C3)c1
[1]
  T/C: 91 % of control
endpoint: mean survival time, dose: 100.0 mg/kg/injection, schedule: Q04DX003 (ip), vehicle: saline with Tween-80
  T/C: 102 % of control
[2]
  T/C: 90 % of control
endpoint: mean survival time, dose: 200.0 mg/kg/injection, schedule: Q04DX003 (ip), vehicle: saline with Tween-80
  T/C: 100 % of control
endpoint: mean survival time, dose: 400.0 mg/kg/injection, schedule: Q01DX009 (ip), vehicle: saline with Tween-80
  T/C: 95 % of control
endpoint: mean survival time, dose: 400.0 mg/kg/injection, schedule: Q04DX003 (ip), vehicle: saline with Tween-80
  T/C: 98 % of control

## Cc1cc(C)n2[nH]c(=O)cc2n1
endpoint: mean survival time, dose: 100.0 mg/kg/injection, schedule: Q04DX002 (ip), vehicle: saline with Tween-80
  T/C: 98 % of control
endpoint: mean survival time, dose: 200.0 mg/kg/injection, schedule: Q04DX002 (ip), vehicle: saline with Tween-80
  T/C: 104 % of control
endpoint: mean survival time, dose: 400.0 mg/kg/injection, schedule: Q04DX002 (ip), vehicle: saline with Tween-80
  T/C: 106 % of control

## COc1cc([C@@H]2c3cc4c(cc3[C@@H](OC3OC5CO[C@@H](c6cccs6)OC5C(O)C3O)[C@H]3COC(=O)[C@H]23)OCO4)cc(OC)c1O (stereo not given in full)
endpoint: mean survival time, dose: 0.5 mg/kg/injection, schedule: Q03HX024 (ip), vehicle: other
  T/C: 109 % of control
endpoint: mean survival time, dose: 1.0 mg/kg/injection, schedule: Q01DX009 (ip), vehicle: other
  T/C: 111 % of control
endpoint: mean survival time, dose: 1.0 mg/kg/injection, schedule: Q03HX008 (ip), vehicle: other
  T/C: 122 % of control
endpoint: mean survival time, dose: 1.0 mg/kg/injection, schedule: Q03HX016 (ip), vehicle: other
  T/C: 111 % of control
endpoint: mean survival time, dose: 1.0 mg/kg/injection, schedule: Q03HX024 (ip), vehicle: other
  T/C: 118 % of control
endpoint: mean survival time, dose: 2.0 mg/kg/injection, schedule: Q01DX009 (oral), vehicle: other
  T/C: 104 % of control
endpoint: mean survival time, dose: 2.0 mg/kg/injection, schedule: Q03HX008 (oral), vehicle: other
  T/C: 90 % of control
endpoint: mean survival time, dose: 2.0 mg/kg/injection, schedule: Q04DX003 (ip), vehicle: water
  T/C: 194 % of control
endpoint: mean survival time, dose: 2.0 mg/kg/injection, schedule: Q08DX002 (ip), vehicle: water
  T/C: 156 % of control
endpoint: mean survival time, dose: 4.0 mg/kg/injection, schedule: Q01DX001 (ip), vehicle: water
  T/C: 157 % of control
endpoint: mean survival time, dose: 4.0 mg/kg/injection, schedule: Q01DX009 (oral), vehicle: other
  T/C: 101 % of control
endpoint: mean survival time, dose: 4.0 mg/kg/injection, schedule: Q03HX008 (oral), vehicle: other
  T/C: 98 % of control
endpoint: mean survival time, dose: 4.0 mg/kg/injection, schedule: Q04DX003 (ip), vehicle: other
  T/C: 110 % of control
endpoint: mean survival time, dose: 4.0 mg/kg/injection, schedule: Q04DX003 (ip), vehicle: water
  T/C: 241 % of control
endpoint: mean survival time, dose: 4.0 mg/kg/injection, schedule: Q08DX002 (ip), vehicle: water
  T/C: 172 % of control
endpoint: mean survival time, dose: 8.0 mg/kg/injection, schedule: Q01DX001 (ip), vehicle: water
  T/C: 162 % of control
endpoint: mean survival time, dose: 8.0 mg/kg/injection, schedule: Q01DX009 (oral), vehicle: other
  T/C: 105 % of control
endpoint: mean survival time, dose: 8.0 mg/kg/injection, schedule: Q03HX008 (oral), vehicle: other
  T/C: 100 % of control
endpoint: mean survival time, dose: 8.0 mg/kg/injection, schedule: Q03HX016 (ip), vehicle: other
  T/C: 186 % of control
endpoint: mean survival time, dose: 8.0 mg/kg/injection, schedule: Q03HX016 (oral), vehicle: other
  T/C: 95 % of control
endpoint: mean survival time, dose: 8.0 mg/kg/injection, schedule: Q03HX024 (oral), vehicle: other
  T/C: 98 % of control
endpoint: mean survival time, dose: 8.0 mg/kg/injection, schedule: Q04DX003 (ip), vehicle: water
  T/C: 426 % of control
endpoint: mean survival time, dose: 8.0 mg/kg/injection, schedule: Q04DX003 (oral), vehicle: other
  T/C: 97 % of control
endpoint: mean survival time, dose: 8.0 mg/kg/injection, schedule: Q08DX002 (ip), vehicle: other
  T/C: 109 % of control
endpoint: mean survival time, dose: 8.0 mg/kg/injection, schedule: Q08DX002 (ip), vehicle: water
  T/C: 300 % of control
endpoint: mean survival time, dose: 16.0 mg/kg/injection, schedule: Q01DX001 (ip), vehicle: water
  T/C: 439 % of control
endpoint: mean survival time, dose: 16.0 mg/kg/injection, schedule: Q01DX001 (oral), vehicle: other
  T/C: 111 % of control
endpoint: mean survival time, dose: 16.0 mg/kg/injection, schedule: Q01DX009 (oral), vehicle: other
  T/C: 103 % of control
endpoint: mean survival time, dose: 16.0 mg/kg/injection, schedule: Q03HX008 (oral), vehicle: other
  T/C: 95 % of control
endpoint: mean survival time, dose: 16.0 mg/kg/injection, schedule: Q03HX016 (oral), vehicle: other
  T/C: 94 % of control and 95 % of control
endpoint: mean survival time, dose: 16.0 mg/kg/injection, schedule: Q03HX024 (oral), vehicle: other
  T/C: 93 % of control
endpoint: mean survival time, dose: 16.0 mg/kg/injection, schedule: Q04DX003 (ip), vehicle: water
  T/C: 172 % of control
endpoint: mean survival time, dose: 16.0 mg/kg/injection, schedule: Q04DX003 (oral), vehicle: other
  T/C: 106 % of control
endpoint: mean survival time, dose: 16.0 mg/kg/injection, schedule: Q08DX002 (ip), vehicle: other
  T/C: 122 % of control
endpoint: mean survival time, dose: 16.0 mg/kg/injection, schedule: Q08DX002 (ip), vehicle: water
  T/C: 423 % of control
endpoint: mean survival time, dose: 16.0 mg/kg/injection, schedule: Q08DX002 (oral), vehicle: other
  T/C: 102 % of control
endpoint: mean survival time, dose: 32.0 mg/kg/injection, schedule: Q01DX001 (ip), vehicle: water
  T/C: 242 % of control
endpoint: mean survival time, dose: 32.0 mg/kg/injection, schedule: Q01DX001 (oral), vehicle: other
  T/C: 161 % of control
endpoint: mean survival time, dose: 32.0 mg/kg/injection, schedule: Q03HX016 (oral), vehicle: other
  T/C: 98 % of control
endpoint: mean survival time, dose: 32.0 mg/kg/injection, schedule: Q03HX024 (oral), vehicle: other
  T/C: 94 % of control
endpoint: mean survival time, dose: 32.0 mg/kg/injection, schedule: Q04DX003 (ip), vehicle: water
  T/C: 103 % of control
endpoint: mean survival time, dose: 32.0 mg/kg/injection, schedule: Q04DX003 (oral), vehicle: other
  T/C: 100 % of control
endpoint: mean survival time, dose: 32.0 mg/kg/injection, schedule: Q08DX002 (ip), vehicle: water
  T/C: 163 % of control
endpoint: mean survival time, dose: 32.0 mg/kg/injection, schedule: Q08DX002 (oral), vehicle: other
  T/C: 100 % of control
endpoint: mean survival time, dose: 64.0 mg/kg/injection, schedule: Q01DX001 (ip), vehicle: other
  T/C: 188 % of control
endpoint: mean survival time, dose: 64.0 mg/kg/injection, schedule: Q01DX001 (oral), vehicle: other
  T/C: 98 % of control
endpoint: mean survival time, dose: 64.0 mg/kg/injection, schedule: Q03HX024 (oral), vehicle: other
  T/C: 92 % of control
endpoint: mean survival time, dose: 64.0 mg/kg/injection, schedule: Q04DX003 (oral), vehicle: other
  T/C: 97 % of control
endpoint: mean survival time, dose: 64.0 mg/kg/injection, schedule: Q08DX002 (ip), vehicle: other
  T/C: 190 % of control
endpoint: mean survival time, dose: 64.0 mg/kg/injection, schedule: Q08DX002 (oral), vehicle: other
  T/C: 96 % of control
endpoint: mean survival time, dose: 128.0 mg/kg/injection, schedule: Q01DX001 (oral), vehicle: other
  T/C: 101 % of control
endpoint: mean survival time, dose: 128.0 mg/kg/injection, schedule: Q03HX024 (oral), vehicle: other
  T/C: 94 % of control
endpoint: mean survival time, dose: 128.0 mg/kg/injection, schedule: Q04DX003 (oral), vehicle: other
  T/C: 96 % of control
endpoint: mean survival time, dose: 128.0 mg/kg/injection, schedule: Q08DX002 (oral), vehicle: other
  T/C: 98 % of control
endpoint: mean survival time, dose: 600.0 mg/kg/injection, schedule: Q01DX009 (ip), vehicle: steriod suspending solution
  T/C: 224 % of control
endpoint: mean survival time, dose: 800.0 mg/kg/injection, schedule: Q01DX009 (ip), vehicle: steriod suspending solution
  T/C: 246 % of control
endpoint: mean survival time, dose: 1000.0 mg/kg/injection, schedule: Q01DX009 (ip), vehicle: steriod suspending solution
  T/C: 169 % of control
endpoint: median survival time, dose: 1.0 mg/kg/injection, schedule: Q01DX009 (ip), vehicle: saline
  T/C: 194 % of control
endpoint: median survival time, dose: 2.0 mg/kg/injection, schedule: Q01DX009 (ip), vehicle: saline
  T/C: 116 % of control
endpoint: median survival time, dose: 4.0 mg/kg/injection, schedule: Q01DX009 (ip), vehicle: saline
  T/C: 88 % of control

## O=C(N/N=C/c1cccc([N+](=O)[O-])c1)c1ccc(Cl)c(Cl)c1
endpoint: mean survival time, dose: 50.0 mg/kg/injection, schedule: Q01DX009 (ip), vehicle: saline with Tween-80
  T/C: 93 % of control
[1]
  T/C: 93 % of control
[2]
  T/C: 90 % of control
